Data as given in paper PMC12670160, “A drug-repurposing screen of FDA- and EMA-approved drugs identifies two NF-κB inhibitors active against eumycetoma” (Journal of Antimicrobial Chemotherapy, 2025).
Values after ≈ are worked out from the molar mass of the structure shown. Where two headings read alike, the source gives them in different places.

Tests used:
M. mycetomatis [1] = experiment: In vitro susceptibility, averages over M. mycetomatis isolates (average metabolic activity at 2 µM, mean MIC); format: cell-based; settings: Madurella mycetomatis, 96 h, 4 days at 37°C, CellTiter-Glo, average of 3 isolates, 20% or below = inhibition
Description: M. mycetomatis isolate MM55 was used to screen the Oncode library. This strain was kindly provided by Prof. […] The three M. mycetomatis isolates were identified by ITS sequencing and maintained at −80°C at Erasmus MC. Prior to in vitro screening, isolates were cultured on Sabouraud agar plates (BD, Erembodegem, Belgium) at 37°C.
The Oncode Drug Repurposing library was based on the drug repurposing library from the Drug Repurposing Hub of the Broad Institute and recreated by the Oncode institute.[13] […] Each well of the 384-well plates contained 0.6 µL of a 200 µM stock concentration of compound, resulting in a final concentration of 2 µM when the fungus was added. […] Furthermore, this concentration could also be reached in the G. mellonella larvae.[8],[11] The prepared 384-well plates were transferred on dry ice to the Erasmus MC and stored at −80°C until they were screened.
Each plate also contained a growth control (60 µL of M. mycetomatis hyphal suspension, plus 0.6 µL of DMSO) and a negative control (60 µL of culture medium, plus 0.6 µL of DMSO). Plates were then incubated for 4 days at 37°C, after which 30 µL of CellTiter-Glo 3D Cell Viability reagent was added to every well.[19] After 25 min of incubation at room temperature, the luminescence was measured with a CytoFluor Series 4000 luminometer (PerSeptive Biosystems, Framingham, MA, USA). To determine the metabolic activity, the following formula was used:
Percentagemetabolicactivity=(Absorbancetestluminensence−AbsorbanceNCluminensence/AbsorbanceGCluminensence−AbsorbanceNCluminensence)×100
where, GC is growth control and NC is negative control. The luminescence measured for the GC is considered as 100% metabolic activity. The luminescence for the NC is considered as 0% metabolic activity.

[2] = tested on: M. mycetomatis strain mm55; experiment: IC50 and MIC determination, CellTiter-Glo, strain mm55; format: cell-based, Madurella mycetomatis; settings: Madurella mycetomatis; for IC50: concentration inhibiting 50% of fungal hyphae growth; for MIC: concentration with complete growth inhibition
M. mycetomatis strain P1 = experiment: IC50 and MIC determination, CellTiter-Glo, strain P1; format: cell-based, Madurella mycetomatis; settings: Madurella mycetomatis, P1
M. mycetomatis strain I1 = experiment: IC50 and MIC determination, CellTiter-Glo, strain I1; format: cell-based, Madurella mycetomatis; settings: Madurella mycetomatis, I1
[3] = tested on: healthy uninfected G. mellonella larvae
Description: (§1) For in vivo experiments, sixth-week instar G. mellonella larvae were purchased from Blue-Lagoon, Maassluis, The Netherlands. The larvae were raised and kept in the dark at room temperature. Larvae without any discoloration and weighing around 500 mg were selected for experiments.
To determine the toxicity, 15 healthy uninfected larvae were injected with 20 µL of 20 µM compound as previously described.[16] […] As a control, a separate group of larvae were injected with 20 µL of PBS. Larvae were housed in Petri dishes with Whatman paper at 37°C in the dark. Survival was monitored for 10 days.

[4] = tested on: M. mycetomatis MM55-infected G. mellonella larvae; experiment: Therapeutic efficacy in M. mycetomatis-infected G. mellonella larvae (survival, log-rank); format: in vivo, Galleria mellonella; settings: 10 days
Description: as §1
The wet weight was determined and 10 mL of PBS per gram of mycelia was added. The suspension was then sonicated for 2 min to achieve a particle size of 10 µm. The fungal suspension (4 mg/40 µL) was injected into the last left pro-leg of a healthy G. mellonella larva with an insulin 29G U-100 needle to reach a final inoculum of 4 mg/larva. Larvae were placed in Petri dishes containing Whatman paper in a 37°C incubator.
A control group was also included in which M. mycetomatis-infected larvae were treated with PBS or with 1 mg/kg amphotericin B (Fungizone, Bristol Myers Squibb, Utrecht, The Netherlands). […] The treatment was repeated at 28 h post infection and 52 h post infection via different prolegs. The infection was monitored for 10 days.
To compare the survival rates between PBS treatment control and the different experimental groups a log-rank test was performed. All data were processed and performed in GraphPad Prism 10.

M. mycetomatis [5] = tested on: M. mycetomatis; parameters: method as in PMID 35398930, PMID 15793113, PMID 36005544, PMID 34181477, PMID 22964246; settings: against M. mycetomatis; cited from earlier work
[6] = tested on: M. mycetomatis-infected G. mellonella larvae; settings: cited from earlier work
M. mycetomatis [7] = experiment: In vitro susceptibility, averages over M. mycetomatis isolates (average metabolic activity at 2 µM, mean MIC); format: cell-based, Madurella mycetomatis; settings: Madurella mycetomatis; mean/average over strains MM55, P1 and I1
[8] = 20 µL of 20 µM injected, 10 day observation, toxic if more than 20% of larvae died
[9] = 20 µL of 10 µM at 4, 28 and 52 h post infection
[10] = 20 µL of 20 µM at 4, 28 and 52 h post infection

`C[C@@H](c1nc(-c2ccc(C#N)cc2)cs1)[C@](O)(Cn1cncn1)c1cc(F)ccc1F` [Isavuconazole] showed an activity at 2 µM (M. mycetomatis [1]) of 2.1%, an IC50 [2] of 0.43 µM and an MIC [2] of 1 µM (≈ 0.437 µg/mL). The IC50 (M. mycetomatis strain P1) was under 0.03 µM, the MIC (M. mycetomatis strain P1) was 0.03 µM (≈ 0.0131 µg/mL) and the IC50 (M. mycetomatis strain I1) was 0.05 µM. For the same molecule, the MIC (M. mycetomatis strain I1) was 0.06 µM (≈ 0.0262 µg/mL).
For `C/C(=N\NC(=S)N1CCC1)c1ccccn1` [nsc319726], the activity at 2 µM (M. mycetomatis [1]) was 4.1%, the IC50 [2] was 1.61 µM and the MIC [2] was 2 µM (≈ 0.469 µg/mL). For the same molecule, the IC50 (M. mycetomatis strain P1) was 0.74 µM, the MIC (M. mycetomatis strain P1) was 2 µM (≈ 0.469 µg/mL) and the IC50 (M. mycetomatis strain I1) was 1.04 µM. For the same molecule, the MIC (M. mycetomatis strain I1) was 2 µM (≈ 0.469 µg/mL), the “Toxicity in G. mellonella larvae at 20 µM” value (“Toxicity” for short) [3, 8] was “toxicity was noted” and the “Survival of M. mycetomatis-infected larvae versus PBS” value [4, 9] was “No prolonged survival”.
In the case of `C[C@@H](c1nc(-c2ccc(C#N)cc2)cs1)[C@](O)(Cn1cncn1)c1ccc(F)cc1F` [Ravuconazole], the activity at 2 µM (M. mycetomatis [1]) is reported as 1.3%, the IC50 [2] is reported as 0.17 µM and the MIC [2] is reported as 0.25 µM (≈ 0.109 µg/mL). For the same molecule, the IC50 (M. mycetomatis strain P1) was under 0.03 µM, the MIC (M. mycetomatis strain P1) was 0.06 µM (≈ 0.0262 µg/mL) and the IC50 (M. mycetomatis strain I1) was under 0.03 µM. The MIC (M. mycetomatis strain I1) was 0.03 µM (≈ 0.0131 µg/mL), the MIC50 (M. mycetomatis [5]) was 16 ng/mL (≈ 0.0366 µM) and the larval survival ([6]; only at concentrations higher than used in human patients) was “Prolonged survival”.
Work on `N#C/C(=C1/SC[C@@H](c2ccc(Cl)cc2Cl)S1)n1ccnc1` [Luliconazole] yielded an activity at 2 µM (M. mycetomatis [1]) of 1%, an IC50 [2] of under 0.03 µM and an MIC [2] of 0.03 µM (≈ 0.0106 µg/mL). It also gave an IC50 (M. mycetomatis strain P1) of under 0.03 µM, an MIC (M. mycetomatis strain P1) of 0.03 µM (≈ 0.0106 µg/mL) and an IC50 (M. mycetomatis strain I1) of under 0.03 µM. The MIC (M. mycetomatis strain I1) was 0.03 µM (≈ 0.0106 µg/mL), the MIC (M. mycetomatis [7]) was under 0.03 µM and the MIC50 (M. mycetomatis [5]) was 1 ng/mL (≈ 0.00282 µM).
`CC(C)(C)c1cc(C=C(C#N)C#N)cc(C(C)(C)C)c1O` [Tyrphostin 9] gave an activity at 2 µM (M. mycetomatis [1]) of 1.5%, an IC50 [2] of 1.36 µM and an MIC [2] of 2 µM (≈ 0.565 µg/mL). It also gave an IC50 (M. mycetomatis strain P1) of 1.22 µM, an MIC (M. mycetomatis strain P1) of 2 µM (≈ 0.565 µg/mL) and an IC50 (M. mycetomatis strain I1) of 0.78 µM. For the same molecule, the MIC (M. mycetomatis strain I1) was 1 µM (≈ 0.282 µg/mL), the “Toxicity” value [3, 8] was “toxicity was noted” and the “Survival of M. mycetomatis-infected larvae versus PBS” value [4, 9] was “Decreased survival”.
In the case of `Oc1c(Br)cc(Br)c2cccnc12` [Broxyquinoline], the activity at 2 µM (M. mycetomatis [1]) is reported as 3.3%, the IC50 [2] is reported as 1.6 µM and the MIC [2] is reported as 2 µM (≈ 0.606 µg/mL). For the same molecule, the IC50 (M. mycetomatis strain P1) was 0.56 µM, the MIC (M. mycetomatis strain P1) was 2 µM (≈ 0.606 µg/mL) and the IC50 (M. mycetomatis strain I1) was 1.29 µM. For the same molecule, the MIC (M. mycetomatis strain I1) was 2 µM (≈ 0.606 µg/mL), the “Toxicity” value ([3]; in vivo) was “not toxic” and the “Survival of M. mycetomatis-infected larvae versus PBS” value [4, 10] was “No prolonged survival”.
In the case of `C[C@@H](c1ncncc1F)[C@](O)(Cn1cncn1)c1ccc(F)cc1F` [Voriconazole], the activity at 2 µM (M. mycetomatis [1]) is reported as 1.1%, the IC50 [2] is reported as 0.63 µM and the MIC [2] is reported as 1 µM (≈ 0.349 µg/mL). The IC50 (M. mycetomatis strain P1) was 0.33 µM, the MIC (M. mycetomatis strain P1) was 0.5 µM (≈ 0.175 µg/mL) and the IC50 (M. mycetomatis strain I1) was 0.2 µM. For the same molecule, the MIC (M. mycetomatis strain I1) was 0.25 µM (≈ 0.0873 µg/mL), the MIC50 (M. mycetomatis [5]) was 125 ng/mL (≈ 0.358 µM) and the larval survival ([6]; M. mycetomatis-infected G. mellonella larvae) was “No prolonged larval survival”.
For `Oc1c(I)cc(Cl)c2cccnc12` [Clioquinol], the activity at 2 µM (M. mycetomatis [1]) was 0%, the IC50 [2] was 1.2 µM and the MIC [2] was 2 µM (≈ 0.611 µg/mL). For the same molecule, the IC50 (M. mycetomatis strain P1) was 0.38 µM, the MIC (M. mycetomatis strain P1) was 0.5 µM (≈ 0.153 µg/mL) and the IC50 (M. mycetomatis strain I1) was 1.7 µM. For the same molecule, the MIC (M. mycetomatis strain I1) was 2 µM (≈ 0.611 µg/mL), the “Toxicity” value ([3]; in vivo) was “not toxic” and the “Survival of M. mycetomatis-infected larvae versus PBS” value [4, 10] was “No prolonged survival”.
For `N#C/C(=C1/SCC(c2ccccc2Cl)S1)n1ccnc1` (stereo not shown) [Lanoconazole], the activity at 2 µM (M. mycetomatis [1]) was 3%, the IC50 [2] was 0.04 µM and the MIC [2] was 0.06 µM (≈ 0.0192 µg/mL). It also gave an IC50 (M. mycetomatis strain P1) of under 0.03 µM, an MIC (M. mycetomatis strain P1) of 0.03 µM (≈ 0.0096 µg/mL) and an IC50 (M. mycetomatis strain I1) of under 0.03 µM. The MIC (M. mycetomatis strain I1) was 0.03 µM (≈ 0.0096 µg/mL), the MIC (M. mycetomatis [7]) was under 0.03 µM and the MIC50 (M. mycetomatis [5]) was 2 ng/mL (≈ 0.00625 µM).
Work on `Cc1ccc2c(Br)cc(Br)c(OC(=O)c3ccccc3)c2n1` [Broxaldine] yielded an activity at 2 µM (M. mycetomatis [1]) of 4.8%, an IC50 [2] of 1.25 µM and an MIC [2] of 2 µM (≈ 0.842 µg/mL). The IC50 (M. mycetomatis strain P1) was 0.63 µM, the MIC (M. mycetomatis strain P1) was 1 µM (≈ 0.421 µg/mL) and the IC50 (M. mycetomatis strain I1) was 1.31 µM. The MIC (M. mycetomatis strain I1) was 2 µM (≈ 0.842 µg/mL), the “Toxicity” value ([3]; in vivo) was “not toxic” and the “Survival of M. mycetomatis-infected larvae versus PBS” value [4, 10] was “No prolonged survival”.
